# From patent US20220289753A1, “SHP2 INHIBITORS” (IRBM S.P.A., priority 2019, published 2022)
# Target: T1, SHP-2 enzyme (Met1-Leu525) (Homo sapiens, UniProt Q06124)
# T1 construct: synthetized by Origene, Met1-Leu525, cat #TP750155; purchased Origene TP750155
# T1 sequence (Q06124 1-525): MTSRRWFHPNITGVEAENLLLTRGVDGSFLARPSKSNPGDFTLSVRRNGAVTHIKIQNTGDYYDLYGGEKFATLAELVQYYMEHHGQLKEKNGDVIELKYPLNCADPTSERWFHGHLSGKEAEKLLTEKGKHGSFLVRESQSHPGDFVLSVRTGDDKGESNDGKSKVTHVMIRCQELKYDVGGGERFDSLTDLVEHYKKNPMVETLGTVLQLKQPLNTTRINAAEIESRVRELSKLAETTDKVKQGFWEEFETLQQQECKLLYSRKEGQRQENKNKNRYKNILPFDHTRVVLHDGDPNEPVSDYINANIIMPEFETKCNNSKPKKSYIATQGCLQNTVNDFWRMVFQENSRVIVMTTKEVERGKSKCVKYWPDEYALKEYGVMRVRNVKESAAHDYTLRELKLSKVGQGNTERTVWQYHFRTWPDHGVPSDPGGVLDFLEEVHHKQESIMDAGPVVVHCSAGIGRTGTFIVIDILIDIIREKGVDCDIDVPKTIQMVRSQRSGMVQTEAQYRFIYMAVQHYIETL
# Test: SHP2 inhibition enzymatic assay (DiFMUP substrate, IRS1 peptide activation)
# Assay type: biochemical
# Conditions: SHP2 wt; activated by 500 nM IRS1 peptide; 75 μM DiFMUP substrate
# Description: SHP2 Inhibition Enzymatic Assay
# Assay volume of 20 μL/well was assembled in 384 well black polystyrene low-binding microplates (Greiner), using the following buffer: 60 mM HEPES pH 7.2, 75 mM NaCl, 75 mM KCl, 1 mM EDTA pH 8, 0.05% tween-20, 5 mM DTT. The SHP-2 enzyme (synthetized by Origene, Met1-Leu525, cat #TP750155) was used at a final concentration of 0.5 nM.
# Briefly, DMSO serially diluted testing compounds were transferred to the bottom of the assay plate. SHP2 was then added together with the IRS1 peptide. 30 minutes post incubation, the DiFMUP substrate was added to the reaction and incubated 30 min at room temperature. […] The fluorescence was detected by a microplate reader (Envision, PerkinElmer) according to the DiFMUP excitation and emission wavelength. The lower the fluorescence the higher the SHP2 inhibition.
# The percentage inhibition is fitted against the compound dilutions with a four-parameter logistic regression. The inflection point (i.e. the concentration at which half-maximal inhibition is achieved) is the IC50.
row,Compound,IC50
1,"Cn1nc(-c2ccc(Sc3cnc4[nH]c(N5CCC(C)(N)CC5)nc4n3)s2)cc1C(F)(F)F [Example 57, 4-methyl-1-(5-((5-(1-methyl-5-(trifluoromethyl)-1H-pyrazol-3-yl)thiophen-2-yl)thio)-1H-imidazo[4,5-b]pyrazin-2-yl)piperidin-4-amine]",> 3 µM
2,"CC1(N)CCN(c2nc3nc(Sc4cccc(-c5ccccc5)c4)cnc3[nH]2)CC1 [Example 58, 1-(5-([1,1′-biphenyl]-3-ylthio)-1H-imidazo[4,5-b]pyrazin-2-yl)-4-methylpiperidin-4-amine]",0.5 to 3 µM
3,"CC1(N)CCN(c2nc3nc(Sc4ccc(-c5nnc(-c6ccccc6)o5)cc4)cnc3[nH]2)CC1 [Example 59, 4-methyl-1-(5-((4-(5-phenyl-1,3,4-oxadiazol-2-yl)phenyl)thio)-1H-imidazo[4,5-b]pyrazin-2-yl)piperidin-4-amine]",0.5 to 3 µM
4,"CC1(N)CCN(c2nc3nc(Sc4ccn5nccc5n4)cnc3[nH]2)CC1 [Example 65, 4-methyl-1-(5-(pyrazolo[1,5-a]pyrimidin-5-ylthio)-1H-imidazo[4,5-b]pyrazin-2-yl)piperidin-4-amine]",> 3 µM
5,"CC1(N)CCN(c2nc3nc(Sc4cccc(O)n4)cnc3[nH]2)CC1 [Example 66, 6-((2-(4-amino-4-methylpiperidin-1-yl)-1H-imidazo[4,5-b]pyrazin-5-yl)thio)pyridin-2-ol]",> 3 µM
6,"CN1CCOc2ccc(Sc3cnc4[nH]c(N5CCC(C)(N)CC5)nc4n3)cc21 [Example 67, 4-methyl-1-(5-((4-methyl-3,4-dihydro-2H-benzo[b][1,4]oxazin-6-yl)thio)-1H-imidazo[4,5-b]pyrazin-2-yl)piperidin-4-amine]",> 3 µM
7,"Cc1ccsc1Sc1cnc2[nH]c(N3CCC(C)(N)CC3)nc2n1 [Example 68, 4-methyl-1-(5-((3-methylthiophen-2-yl)thio)-1H-imidazo[4,5-b]pyrazin-2-yl)piperidin-4-amine]",> 3 µM
8,"COc1ccc2nc(Sc3cnc4[nH]c(N5CCC(C)(N)CC5)nc4n3)ccc2c1 [Example 69, 1-(5-((6-methoxyquinolin-2-yl)thio)-1H-imidazo[4,5-b]pyrazin-2-yl)-4-methylpiperidin-4-amine]",0.5 to 3 µM
9,"CC1(N)CCN(c2nc3nc(Sc4cccc5cnccc45)cnc3[nH]2)CC1 [Example 70, 1-(5-(isoquinolin-5-ylthio)-1H-imidazo[4,5-b]pyrazin-2-yl)-4-methylpiperidin-4-amine]",< 0.5 µM
10,"CC1(N)CCN(c2nc3nc(Sc4ccsc4Cl)cnc3[nH]2)CC1 [Example 73, 1-(5-((2-chlorothiophen-3-yl)thio)-1H-imidazo[4,5-b]pyrazin-2-yl)-4-methylpiperidin-4-amine]",< 0.5 µM
11,"CC(C)=Cc1ccccc1Sc1cnc2[nH]c(N3CCC(C)(N)CC3)nc2n1 [Example 75, 4-methyl-1-(5-((2-(2-methylprop-1-en-1-yl)phenyl)thio)-1H-imidazo[4,5-b]pyrazin-2-yl)piperidin-4-amine]",> 3 µM
12,"CC1(N)CCN(c2nc3nc(Sc4cccc5c4C(=O)CC5)cnc3[nH]2)CC1 [Example 76, 7-((2-(4-amino-4-methylpiperidin-1-yl)-1H-imidazo[4,5-b]pyrazin-5-yl)thio)-2,3-dihydro-1H-inden-1-one]",0.5 to 3 µM
13,"COC(=O)c1ccccc1Sc1cnc2[nH]c(N3CCC(C)(N)CC3)nc2n1 [Example 78, methyl 2-((2-(4-amino-4-methylpiperidin-1-yl)-1H-imidazo[4,5-b]pyrazin-5-yl)thio)benzoate]",0.5 to 3 µM
14,"CC1(N)CCN(c2nc3nc(Sc4ccncc4)cnc3[nH]2)CC1 [Example 80, 4-methyl-1-(5-(pyridin-4-ylthio)-1H-imidazo[4,5-b]pyrazin-2-yl)piperidin-4-amine]",0.5 to 3 µM
15,"CC1(N)CCN(c2nc3nc(Sc4ccc5ccccc5c4)cnc3[nH]2)CC1 [Example 81, 4-methyl-1-(5-(naphthalen-2-ylthio)-1H-imidazo[4,5-b]pyrazin-2-yl)piperidin-4-amine]",0.5 to 3 µM
16,"CC1(N)CCN(c2nc3nc(Sc4nc5ccccc5c(=O)[nH]4)cnc3[nH]2)CC1 [Example 91, 2-((2-(4-amino-4-methylpiperidin-1-yl)-1H-imidazo[4,5-b]pyrazin-5-yl)thio)quinazolin-4(3H)-one]",0.5 to 3 µM

# Continued, values first:
row,IC50,Compound
1,0.5 to 3 µM,"CC(N)CCNc1nc2nc(Sc3cccnc3C(F)(F)F)cnc2[nH]1 (stereo not shown) [Example 54, N1-(5-((2-(trifluoromethyl)pyridin-3-yl)thio)-1H-imidazo[4,5-b]pyrazin-2-yl)butane-1,3-diamine]"
2,0.5 to 3 µM,"NCC1CN(c2nc3nc(Sc4cccnc4C(F)(F)F)cnc3[nH]2)C1 [Example 55, (1-(5-((2-(trifluoromethyl)pyridin-3-yl)thio)-1H-imidazo[4,5-b]pyrazin-2-yl)azetidin-3-yl)methanamine]"
3,0.5 to 3 µM,"FC(F)(F)c1ncccc1Sc1cnc2[nH]c(N3CCN4CCNCC4C3)nc2n1 (stereo not shown) [Example 56, 2-(5-((2-(trifluoromethyl)pyridin-3-yl)thio)-1H-imidazo[4,5-b]pyrazin-2-yl)octahydro-2H-pyrazino[1,2-a]pyrazine]"
4,0.5 to 3 µM,"CCn1c(N2CCC(C)(N)CC2)nc2nc(Sc3cccnc3C(F)(F)F)cnc21 [Example 63, 1-(1-ethyl-5-((2-(trifluoromethyl)pyridin-3-yl)thio)-1H-imidazo[4,5-b]pyrazin-2-yl)-4-methylpiperidin-4-amine]"
5,0.5 to 3 µM,"CC1(N)CCN(c2nc3nc(Sc4ccnc(Br)c4)cnc3[nH]2)CC1 [Example 64, 1-(5-((2-bromopyridin-4-yl)thio)-1H-imidazo[4,5-b]pyrazin-2-yl)-4-methylpiperidin-4-amine]"
6,> 3 µM,"CCn1c(N2CCC(C)(N)CC2)nc2ncc(Sc3cccnc3C(F)(F)F)nc21 [Example 72, 1-(1-ethyl-6-((2-(trifluoromethyl)pyridin-3-yl)thio)-1H-imidazo[4,5-b]pyrazin-2-yl)-4-methylpiperidin-4-amine]"
7,< 0.5 µM,"CC1(N)CCN(c2nc3nc(Sc4cccc5c4COC5)cnc3[nH]2)CC1 [Example 77, 1-(5-((1,3-dihydroisobenzofuran-4-yl)thio)-1H-imidazo[4,5-b]pyrazin-2-yl)-4-methylpiperidin-4-amine]"
8,0.5 to 3 µM,"OCCN1CCCN(c2nc3nc(Sc4cccnc4C(F)(F)F)cnc3[nH]2)CC1 [Example 79, 2-(4-(5-((2-(trifluoromethyl)pyridin-3-yl)thio)-1H-imidazo[4,5-b]pyrazin-2-yl)-1,4-diazepan-1-yl)ethan-1-ol]"
9,> 3 µM,"OCCN1CCC(CNc2nc3nc(Sc4cccnc4C(F)(F)F)cnc3[nH]2)CC1 [Example 82, 2-(4-(((5-((2-(trifluoromethyl)pyridin-3-yl)thio)-1H-imidazo[4,5-b]pyrazin-2-yl)amino)methyl)piperidin-1-yl)ethan-1-ol]"
10,> 3 µM,"O=C1NCC2(CCCN(c3nc4nc(Sc5cccnc5C(F)(F)F)cnc4[nH]3)C2)O1 (stereo not shown) [Example 83, 7-(5-((2-(trifluoromethyl)pyridin-3-yl)thio)-1H-imidazo[4,5-b]pyrazin-2-yl)-1-oxa-3,7-diazaspiro[4.5]decan-2-one]"
11,0.5 to 3 µM,"FC(F)(F)c1ncccc1Sc1cnc2[nH]c(NC3CC4(CNC4)C3)nc2n1 [Example 84, N-(2-azaspiro[3.3]heptan-6-yl)-5-((2-(trifluoromethyl)pyridin-3-yl)thio)-1H-imidazo[4,5-b]pyrazin-2-amine]"
12,0.5 to 3 µM,"NC1CCCN(c2nc3nc(Sc4cccnc4C(F)(F)F)cnc3[nH]2)CC1 (stereo not shown) [Example 85, 1-(5-((2-(trifluoromethyl)pyridin-3-yl)thio)-1H-imidazo[4,5-b]pyrazin-2-yl)azepan-4-amine]"
13,0.5 to 3 µM,"CC(N)C1CN(c2nc3nc(Sc4cccnc4C(F)(F)F)cnc3[nH]2)CCO1 (stereo not shown) [Example 86, 1-(4-(5-((2-(trifluoromethyl)pyridin-3-yl)thio)-1H-imidazo[4,5-b]pyrazin-2-yl)morpholin-2-yl)ethan-1-amine]"
14,> 3 µM,"CC(C)(CNc1nc2nc(Sc3cccnc3C(F)(F)F)cnc2[nH]1)N1CCOCC1 [Example 87, N-(2-methyl-2-morpholinopropyl)-5-((2-(trifluoromethyl)pyridin-3-yl)thio)-1H-imidazo[4,5-b]pyrazin-2-amine]"
15,0.5 to 3 µM,"FC(F)(F)c1ncccc1Sc1cnc2[nH]c(N3C[C@@H]4CC[C@H]3CN4)nc2n1 [Example 90, (1S,4S)-2-(5-((2-(trifluoromethyl)pyridin-3-yl)thio)-1H-imidazo[4,5-b]pyrazin-2-yl)-2,5-diazabicyclo[2.2.2]octane]"
